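Growth conditions: 96-well plates. Treatment: test compound, 48 hours, 5 concentrations. Analysis: linear interpolation between bracketing concentrations; unreached endpoints set to highest concentration. GI50 = concentration required for 50% inhibition of growth. The concentration for full growth arrest is given as TGI.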
Legend:
Assay in all cases: DTP human tumour cell line panel, 48 h
786-0 renal = tested on: 786-0 renal
A498 renal = tested on: A498 renal
A549 NSCLC = tested on: A549 NSCLC
ACHN renal = tested on: ACHN renal
BT-549 breast = tested on: BT-549 breast
CAKI-1 renal = tested on: CAKI-1 renal
CCRF-CEM leukemia = tested on: CCRF-CEM leukemia
COLO 205 colon = tested on: COLO 205 colon
DU-145 prostate = tested on: DU-145 prostate
EKVX NSCLC = tested on: EKVX NSCLC
HCC-2998 colon = tested on: HCC-2998 colon
HCT-116 colon = tested on: HCT-116 colon
HCT-15 colon = tested on: HCT-15 colon
HL-60(TB) leukemia = tested on: HL-60(TB) leukemia
HOP-62 NSCLC = tested on: HOP-62 NSCLC
HOP-92 NSCLC = tested on: HOP-92 NSCLC
HS 578T breast = tested on: HS 578T breast
HT29 colon = tested on: HT29 colon
IGROV1 ovarian = tested on: IGROV1 ovarian
K-562 leukemia = tested on: K-562 leukemia
KM12 colon = tested on: KM12 colon
LOX IMVI melanoma = tested on: LOX IMVI melanoma
M14 melanoma = tested on: M14 melanoma
MCF7 breast = tested on: MCF7 breast
MDA-MB-231 breast = tested on: MDA-MB-231 breast
MDA-MB-435 = tested on: MDA-MB-435
MOLT-4 leukemia = tested on: MOLT-4 leukemia
NCI-H226 lung = tested on: NCI-H226 lung
NCI-H23 lung = tested on: NCI-H23 lung
NCI-H460 lung = tested on: NCI-H460 lung
NCI-H522 lung = tested on: NCI-H522 lung
NCI/ADR-RES ovarian = tested on: NCI/ADR-RES ovarian
OVCAR-3 ovarian = tested on: OVCAR-3 ovarian
OVCAR-4 ovarian = tested on: OVCAR-4 ovarian
OVCAR-5 ovarian = tested on: OVCAR-5 ovarian
OVCAR-8 ovarian = tested on: OVCAR-8 ovarian
PC-3 prostate = tested on: PC-3 prostate
RPMI-8226 leukemia = tested on: RPMI-8226 leukemia
RXF 393 renal = tested on: RXF 393 renal
SF-268 CNS = tested on: SF-268 CNS
SF-295 CNS = tested on: SF-295 CNS
SF-539 CNS = tested on: SF-539 CNS
SK-MEL-2 melanoma = tested on: SK-MEL-2 melanoma
SK-MEL-28 melanoma = tested on: SK-MEL-28 melanoma
SK-MEL-5 melanoma = tested on: SK-MEL-5 melanoma
SK-OV-3 ovarian = tested on: SK-OV-3 ovarian
SN12C renal = tested on: SN12C renal
SNB-19 CNS = tested on: SNB-19 CNS
SNB-75 CNS = tested on: SNB-75 CNS
SW-620 colon = tested on: SW-620 colon
T-47D breast = tested on: T-47D breast
TK-10 renal = tested on: TK-10 renal
U251 CNS = tested on: U251 CNS
UACC-257 melanoma = tested on: UACC-257 melanoma
UACC-62 melanoma = tested on: UACC-62 melanoma
UO-31 renal = tested on: UO-31 renal
MALME-3M melanoma = tested on: MALME-3M melanoma

**Q.** Which results are given for `O=C(Nc1cccc(C(F)(F)F)c1)c1cccc(NC2=C(Cl)C(=O)N(Cc3ccccc3)C2=O)c1`?
**A.** GI50 (786-0 renal): 27.4 µM; TGI (786-0 renal): > 100 µM; GI50 (A498 renal): 40.3 µM; TGI (A498 renal): 90.7 µM; GI50 (A549 NSCLC): 17 µM; TGI (A549 NSCLC): > 100 µM; GI50 (ACHN renal): 15.8 µM; TGI (ACHN renal): 85.2 µM; GI50 (BT-549 breast): 18.8 µM; TGI (BT-549 breast): 64.2 µM; GI50 (CAKI-1 renal): 6.5 µM; TGI (CAKI-1 renal): > 100 µM; GI50 (CCRF-CEM leukemia): 1.87 µM; TGI (CCRF-CEM leukemia): 51.6 µM; GI50 (COLO 205 colon): 32.3 µM; TGI (COLO 205 colon): > 100 µM; GI50 (DU-145 prostate): 37.2 µM; TGI (DU-145 prostate): > 100 µM; GI50 (EKVX NSCLC): 68.5 µM; TGI (EKVX NSCLC): > 100 µM; GI50 (HCC-2998 colon): 16.8 µM; TGI (HCC-2998 colon): 32.7 µM; GI50 (HCT-116 colon): 13.5 µM; TGI (HCT-116 colon): 39.2 µM; GI50 (HCT-15 colon): 5.1 µM; TGI (HCT-15 colon): > 100 µM; GI50 (HL-60(TB) leukemia): 5.36 µM; TGI (HL-60(TB) leukemia): 28.7 µM; GI50 (HOP-62 NSCLC): 40.1 µM; TGI (HOP-62 NSCLC): > 100 µM; GI50 (HOP-92 NSCLC): 2.89 µM; TGI (HOP-92 NSCLC): 32.7 µM; GI50 (HS 578T breast): 43.8 µM; TGI (HS 578T breast): > 100 µM; GI50 (HT29 colon): 40.1 µM; TGI (HT29 colon): > 100 µM; GI50 (IGROV1 ovarian): 1.92 µM; TGI (IGROV1 ovarian): 18.3 µM; GI50 (K-562 leukemia): 3.02 µM; TGI (K-562 leukemia): 17.6 µM; GI50 (KM12 colon): 44.8 µM; TGI (KM12 colon): > 100 µM; GI50 (LOX IMVI melanoma): 3.92 µM; TGI (LOX IMVI melanoma): 57.5 µM; GI50 (M14 melanoma): 3.68 µM; TGI (M14 melanoma): 14.3 µM; GI50 (MCF7 breast): 3.28 µM; TGI (MCF7 breast): > 100 µM; GI50 (MDA-MB-231 breast): 5.38 µM; TGI (MDA-MB-231 breast): > 100 µM; GI50 (MDA-MB-435): 8.69 µM; TGI (MDA-MB-435): > 100 µM; GI50 (MOLT-4 leukemia): 2.73 µM; TGI (MOLT-4 leukemia): > 100 µM; GI50 (NCI-H226 lung): 4.51 µM; TGI (NCI-H226 lung): 65.5 µM; GI50 (NCI-H23 lung): 25.4 µM; TGI (NCI-H23 lung): 64.8 µM; GI50 (NCI-H460 lung): 8.76 µM; TGI (NCI-H460 lung): > 100 µM; GI50 (NCI-H522 lung): 4.88 µM; TGI (NCI-H522 lung): 23.5 µM; GI50 (NCI/ADR-RES ovarian): 18.1 µM; TGI (NCI/ADR-RES ovarian): 53.5 µM; GI50 (OVCAR-3 ovarian): 8 µM; TGI (OVCAR-3 ovarian): > 100 µM; GI50 (OVCAR-4 ovarian): 52.2 µM; TGI (OVCAR-4 ovarian): > 100 µM; GI50 (OVCAR-5 ovarian): > 100 µM; TGI (OVCAR-5 ovarian): > 100 µM; GI50 (OVCAR-8 ovarian): 15.7 µM; TGI (OVCAR-8 ovarian): 66.1 µM; GI50 (PC-3 prostate): 3.1 µM; TGI (PC-3 prostate): 14.3 µM; GI50 (RPMI-8226 leukemia): 1.89 µM; TGI (RPMI-8226 leukemia): 6.51 µM; GI50 (RXF 393 renal): 2.39 µM; TGI (RXF 393 renal): 9.29 µM; GI50 (SF-268 CNS): 5.96 µM; TGI (SF-268 CNS): 40.9 µM; GI50 (SF-295 CNS): 20.2 µM; TGI (SF-295 CNS): > 100 µM; GI50 (SF-539 CNS): 26 µM; TGI (SF-539 CNS): 62.7 µM; GI50 (SK-MEL-2 melanoma): 14.6 µM; TGI (SK-MEL-2 melanoma): 40.1 µM; GI50 (SK-MEL-28 melanoma): 45.1 µM; TGI (SK-MEL-28 melanoma): > 100 µM; GI50 (SK-MEL-5 melanoma): 18 µM; TGI (SK-MEL-5 melanoma): 38.2 µM; GI50 (SK-OV-3 ovarian): 79.1 µM; TGI (SK-OV-3 ovarian): > 100 µM; GI50 (SN12C renal): 14.9 µM; TGI (SN12C renal): > 100 µM; GI50 (SNB-19 CNS): 36.8 µM; TGI (SNB-19 CNS): > 100 µM; GI50 (SNB-75 CNS): 57.3 µM; TGI (SNB-75 CNS): > 100 µM; GI50 (SW-620 colon): 38.4 µM; TGI (SW-620 colon): > 100 µM; GI50 (T-47D breast): 6.28 µM; TGI (T-47D breast): 89.9 µM; GI50 (TK-10 renal): 19.5 µM; TGI (TK-10 renal): > 100 µM; GI50 (U251 CNS): 6.17 µM; TGI (U251 CNS): > 100 µM; GI50 (UACC-257 melanoma): 12.4 µM; TGI (UACC-257 melanoma): 38.5 µM; GI50 (UACC-62 melanoma): 12.1 µM; TGI (UACC-62 melanoma): 29.9 µM; GI50 (UO-31 renal): 11.7 µM; TGI (UO-31 renal): > 100 µM

**Q.** Which results are given for `Cc1cc(NC(=O)C(=O)Cc2cnc3ccccc3n2)c(S(=O)(=O)O)cc1Cl`?
**A.** TGI (786-0 renal): > 100 µM; TGI (A498 renal): > 100 µM; TGI (A549 NSCLC): > 100 µM; TGI (ACHN renal): > 100 µM; TGI (BT-549 breast): > 100 µM; TGI (CAKI-1 renal): > 100 µM; TGI (CCRF-CEM leukemia): > 100 µM; TGI (COLO 205 colon): > 100 µM; TGI (DU-145 prostate): > 100 µM; TGI (EKVX NSCLC): > 100 µM; TGI (HCC-2998 colon): > 100 µM; TGI (HCT-116 colon): > 100 µM; TGI (HCT-15 colon): > 100 µM; TGI (HL-60(TB) leukemia): > 100 µM; TGI (HOP-92 NSCLC): > 100 µM; TGI (HS 578T breast): > 100 µM; TGI (HT29 colon): > 100 µM; TGI (IGROV1 ovarian): > 100 µM; TGI (K-562 leukemia): > 100 µM; TGI (KM12 colon): > 100 µM; TGI (LOX IMVI melanoma): > 100 µM; TGI (M14 melanoma): > 100 µM; TGI (MALME-3M melanoma): > 100 µM; TGI (MCF7 breast): > 100 µM; TGI (MDA-MB-231 breast): > 100 µM; TGI (MDA-MB-435): > 100 µM; TGI (MOLT-4 leukemia): > 100 µM; TGI (NCI-H226 lung): > 100 µM; TGI (NCI-H23 lung): > 100 µM; TGI (NCI-H460 lung): > 100 µM; TGI (NCI-H522 lung): > 100 µM; TGI (NCI/ADR-RES ovarian): > 100 µM; TGI (OVCAR-3 ovarian): > 100 µM; TGI (OVCAR-4 ovarian): > 100 µM; TGI (OVCAR-5 ovarian): > 100 µM; TGI (OVCAR-8 ovarian): > 100 µM; TGI (PC-3 prostate): > 100 µM; TGI (RPMI-8226 leukemia): > 100 µM; TGI (SF-268 CNS): > 100 µM; TGI (SF-295 CNS): > 100 µM; TGI (SF-539 CNS): > 100 µM; TGI (SK-MEL-2 melanoma): > 100 µM; TGI (SK-MEL-28 melanoma): > 100 µM; TGI (SK-MEL-5 melanoma): > 100 µM; TGI (SK-OV-3 ovarian): > 100 µM; TGI (SN12C renal): > 100 µM; TGI (SNB-19 CNS): > 100 µM; TGI (SNB-75 CNS): > 100 µM; TGI (SW-620 colon): > 100 µM; TGI (T-47D breast): > 100 µM; TGI (TK-10 renal): > 100 µM; TGI (U251 CNS): > 100 µM; TGI (UACC-257 melanoma): > 100 µM; TGI (UACC-62 melanoma): > 100 µM; TGI (UO-31 renal): > 100 µM
